Experimental data: paper PMC5715595 (British Journal of Pharmacology, 2017)
pIC50, pKi: −log10 of the molar value. Read-outs that look alike come from different tables or passages of the source.

What was measured:
α2C‐adrenoceptor = α2C‐adrenoceptor (Homo sapiens, UniProt P18825); experiment: Affinity at α2C-adrenoceptor; assay type: binding
hERG channel trafficking = test system: hERG channel trafficking
Description: Whole‐cell patch clamp conditions were similar to the previous one with the following slight changes (biphasic pulses 2 s at +20 mV and then for 3.2 s at −50 mV applied at a 0.1 Hz).

Kir2.1 = target: T1, Kir2.1 (Homo sapiens, UniProt P63252); experiment: Whole-cell patch clamp on Kir2.1 (IK1); assay type: cell-based
T1 construct: expressed in transfected cells
T1 sequence (P63252 1-427): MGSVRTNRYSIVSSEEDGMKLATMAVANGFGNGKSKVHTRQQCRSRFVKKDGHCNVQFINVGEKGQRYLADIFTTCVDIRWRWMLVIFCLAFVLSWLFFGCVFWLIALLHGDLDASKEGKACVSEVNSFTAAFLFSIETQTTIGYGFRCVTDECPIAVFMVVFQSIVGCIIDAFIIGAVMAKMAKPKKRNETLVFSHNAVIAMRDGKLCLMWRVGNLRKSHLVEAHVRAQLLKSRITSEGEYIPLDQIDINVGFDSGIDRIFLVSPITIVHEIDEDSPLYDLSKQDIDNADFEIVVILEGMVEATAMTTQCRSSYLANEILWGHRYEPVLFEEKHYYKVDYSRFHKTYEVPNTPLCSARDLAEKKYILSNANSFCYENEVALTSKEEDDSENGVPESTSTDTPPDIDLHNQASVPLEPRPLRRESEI
Protocol: and CiPA Initiative Studies
=============================================================
In vitro studies on other ion channels […]
through NaV1.5, KV4.3, KV7.1/mink, Kir2.1, KV1.5, CaV1.2 and CaV3.2 channels.
35-mm dish culture in the conditions mentioned in standard cell culture conditions. Experiments were performed with a cell density enabling isolated cells for patch clamping. Cells were continuously superfused with extracellular medium (1-2 mL∙minute-1) at room temperature.
D-glucose 10, HEPES 10 and the final pH adjusted to 7.4±0.02 with NaOH for recording NaV1.5, KV4.3, KV7.1/mink, Kir2.1, KV1.5 and CaV3.2 currents. It was (in mM): NaCl 110, KCl 4, BaCl2 20, MgCl2 1, D-glucose 20, HEPES 10 and the final pH adjusted to 7.4 ± 0.02 with NaOH for recording the CaV1.2 current. Compositions of the intracellular solution to fill the pipette are […]
Composition of intracellular solutions used to fill pipette to record currents through NaV1.5, KV4.3, KV7.1/mink, Kir2.1, KV1.5, CaV1.2 and CaV3.2 channels
Solution to fill the pipette (mM)
Creatine-phospho kinase 50 U∙mL-1
After formation of a Gigaohm seal between the patch electrodes and individual cells (pipette resistance range: 2.0 MΩ - 7.0 MΩ; seal resistance range: > 1 GΩ) the cell membrane across the pipette tip was ruptured to assure electrical access to the cell interior (whole-cell patch-configuration). In case the quality of the seal was poor, the process of seal formation was repeated with a different cell and a new pipette. As soon as a stable seal was established outward tail currents were measured upon pulses described in the Table S2. If current density was judged to be too low for measurement, another cell was recorded. […]
voltage stimulation protocol indicated in the next table continuously run until the steady-state level of block was reached.
Stimulation conditions used to record currents through NaV1.5, KV4.3, KV7.1/mink, Kir2.1, KV1.5, CaV1.2 and CaV3.2 channels
Ion channel Holding potential Pulse / duration Frequency Reference compound […]
(resting / fast / slow sweeps at one (10 mM) inactivated concentration)

rabbit Purkinje fibres [1] = experiment: Action potential parameters in rabbit Purkinje fibres; assay type: cell-based
Protocol: (§1) Following a lethal dose of pentobarbital, the hearts of male New Zealand rabbits were immediately excised and immersed in a modified Tyrode solution maintained at room temperature and previously saturated with O2/CO2 (95%/5%). A piece of ventricle containing free running Purkinje fibres was fixed to the silastic bottom of an organ bath perfused with the same solution maintained at 37°C for 30 min. The preparation was then superfused with the modified Tyrode solution and stimulated for 30 min at 2 Hz and then at 1 Hz (2 ms stimulus at twice threshold). […] After a stabilization period of at least 1 h, action potentials typical for Purkinje fibres were recorded. Action potential reproducibility and stability were confirmed during a further 20 min stabilization period. […] Each was applied for 20 min to enable steady state to be reached. In addition, the emergence of early after‐depolarizations (EADs), favoured by calcium loading during the late phase 2 of the prolonged action potential, is recognized as a better marker of pro‐arrhythmic potential than APD prolongation alone.

rabbit Purkinje fibres [2] = experiment: Dofetilide-induced early after-depolarizations and triggered activity in rabbit Purkinje fibres; assay type: cell-based; details: for APD90: 0.25 Hz
Protocol: as §1

humans = details: human, ref Shah et al., 2016, cited from earlier work
[3] = test system: human stem cell‐derived cardiomyocytes; assay type: cell-based
Description: . Human cardiomyocytes (Cor.4U®, Axiogenesis AG, Cologne, Germany) were derived from human iPSC. Preparations were stimulated at 0.5 Hz with 4 ms rectangular pulses from 1 to 1.5 times depolarization threshold to −60 mV. We studied RMP, APA, action potential durations measured at 20 and 90% repolarization (APD20 and APD90) and APD90‐APD20. […]

[4] = 10 μM pitolisant, dofetilide 0.1 μM

Sequence of α2C‐adrenoceptor (P18825 whole entry): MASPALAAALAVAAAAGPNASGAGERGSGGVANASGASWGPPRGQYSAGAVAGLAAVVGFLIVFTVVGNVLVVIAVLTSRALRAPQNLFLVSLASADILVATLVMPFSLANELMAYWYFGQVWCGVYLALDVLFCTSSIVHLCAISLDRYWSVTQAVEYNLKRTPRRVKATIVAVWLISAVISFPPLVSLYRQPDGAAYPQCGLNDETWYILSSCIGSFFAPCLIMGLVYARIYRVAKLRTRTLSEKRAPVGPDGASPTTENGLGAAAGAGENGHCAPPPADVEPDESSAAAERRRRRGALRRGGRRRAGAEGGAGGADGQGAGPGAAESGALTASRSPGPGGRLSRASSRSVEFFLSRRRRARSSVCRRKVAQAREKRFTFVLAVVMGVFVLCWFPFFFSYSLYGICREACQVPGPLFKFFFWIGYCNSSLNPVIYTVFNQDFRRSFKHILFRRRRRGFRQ

Cl.Clc1ccc(CCCOCCCN2CCCCC2)cc1 [pitolisant, 1‐{3‐[3‐(4‐chlorophenyl)propoxy]propyl}piperidine, hydrochloride]
pKi (α2C‐adrenoceptor): 5.92
effect on hERG current after long-term exposure (hERG channel trafficking; 1 μM over 24 h, after washout): no significant effect on hERG current
change in concentration in the cell culture medium over 24 h of exposure (hERG channel trafficking; LC-mass spectrometry): no significant changes
pIC50 (Kir2.1; Kir2.1 IK1, Hill curve fit with Hill coefficient of one, read-out: Fitted IC50): 4.78
pIC50 (Kir2.1; Pitolisant IC50, Kir2.1, IK1): ≤ 5.00
effects on electrophysiological parameters of the action potential (rabbit Purkinje fibres [1]; 1 μM): only minimal effects
change in APA (rabbit Purkinje fibres [1]; 10 μM): −8 ± 3%
change in APD50 vs. the control (rabbit Purkinje fibres [1]; 10 μM): −27 ± 4%
change in Vmax (rabbit Purkinje fibres [1]; 10 μM): −17 ± 5%
change in resting RMP vs. the control (rabbit Purkinje fibres [1]; 10 μM): −6 ± 1%
change in APD90 vs. the control (rabbit Purkinje fibres [1]; 10 μM, non-significant): +9 ± 5%
pIC50 (rabbit Purkinje fibres [1]; Oryctolagus cuniculus, purkinje, estimated from 27% decrease in APD50 at 10 μM): ~5.30
effect on dofetilide-induced EADs (rabbit Purkinje fibres [2]; 1 μM pitolisant, dofetilide 0.1 μM): no effect (in four out of four experiments)
inhibition of dofetilide-induced EADs (experiments) (rabbit Purkinje fibres [2]; 3 μM pitolisant, dofetilide 0.1 μM): two out of three
suppression of dofetilide-induced EADs (experiments) (rabbit Purkinje fibres [2]; [4]): all seven
suppression of dofetilide-induced spontaneous triggered activity (experiments) (rabbit Purkinje fibres [2]; [4]): one out of one
APD90 (rabbit Purkinje fibres [2]; dofetilide 0.1 μM for 1 h10 and pitolisant 10 μM for 15 min): 275 ms
APD90 (rabbit Purkinje fibres [2]; dofetilide 0.1 μM for 55 min and pitolisant 1 μM for 20 min): 598 ms
maximum mean (90% CI) placebo-corrected increase in QTcF interval from baseline (ΔΔQTcF) (humans; 40 mg pitolisant hydrochloride, TQT study): 3.29 (0.35, 6.23) ms
Cmax (humans; 40 mg): 53 ± 27 ng/mL
maximum mean (90% CI) placebo-corrected increase in QTcF interval from baseline (ΔΔQTcF) (humans; 120 mg pitolisant hydrochloride, TQT study): 5.27 (2.35, 8.20) ms
Cmax (humans; 120 mg): 164 ± 63 ng/mL
maximum mean (90% CI) placebo-corrected increase in QTcF interval from baseline (ΔΔQTcF) (humans; 200 mg pitolisant hydrochloride, SAD study): 13.3 (8.1, 18.5) ms
maximum mean (90% CI) placebo-corrected increase in QTcF interval from baseline (ΔΔQTcF) (humans; 240 mg pitolisant hydrochloride, SAD study): 9.9 (4.7, 15.1) ms
Cmax (humans; 240 mg): 282 ± 47 ng/mL
effect on dofetilide-induced increase in APD90 [3]: fully reversed
increase in APD90–20 vs. baseline ([3]; 3 μM): 192 ms
maximal increase in APD90 ([3]; 3 μM): 97 ms
increase in APD90–20 vs. baseline ([3]; 10 μM): 176 ms
effect on APD20 ([3]; 1, 3 or 10 μM): concentration‐dependent effect of decreasing APD20
effect on RMP and APA ([3]; 1, 3 or 10 μM): little effect
